Each structure is given as a SMILES string. Like-named read-outs stand apart in the source and are kept apart here.

One series has as its system K562 cells. Put plainly: K562 cell viability, CellTiter-Glo luminescent assay. Type of series: cell-based, Human. To be noted: Homo sapiens, 48 h. The protocol:
K562 cells were treated with indicated concentrations of CFZ for 24 h or 48 h, cell viability was then assessed using the CellTiter-Glo luminescent cell viability assay (Promega). Data is mean±SEM of three independent experiments (each in triplicates). IC50 was calculated using Graphpad prism 5 software.
K562 cells were treated as indicated for 48 h and cell viability was determined by CellTiter-Glo luminescent cell viability assay (A) graphical representation of mean±SEM of three independent experiments.
(§1) Determination of CFZ's Effect on Cell Viability and Apoptosis • a. CellTitre-Glo assay: Cell viability (in FIG. 1B, FIG. 4 and FIG. 6A) assays was performed using the ATP-based CellTiter-Glo Luminescent cell viability assay (Promega Madison, Wis.) as per the manufacturer's instruction. Briefly, (1.25×10^5) K562 cells/ml (FIG. 1B and FIG. 4) or CD34+ cells from healthy donors (FIG. 6A) were cultured in 48-well plates and were treated as indicated in the respective figures and figure descriptions (vehicle; V=0.1% DMSO). Cells were then incubated with CellTitre-Glo reagent for 15 min. Luminescence was recorded in a GloMax-96 Microplate luminometer (Promega, Madison, Wis.) with an integration time of 1 s per well. • b. Analysis of apoptosis by Annexin V staining and flow cytometry • K562 (FIG. 1C-D) and primary CP-CML cells (FIG. 1H-I) were cultured in 6 well plates (2×10^5 cells/well) and were treated with indicated concentrations of compounds as described in respective figures and their descriptions. Cells were then harvested and washed, and incubated in binding buffer (Annexin V Binding Buffer, BD Pharmingen) with 0.3% Annexin V-FITC and PI for 15 min at room temperature in dark. Apoptosis was measured by FACSCalibur flow cytometer (Becton Dickenson, San Jose, Calif.). • c. TUNEL assay • Pro-apoptotic potential was analysed using a Fluorometric APO-BrdU™ TUNEL Assay Kit (Invitrogen) according to the manufacturer's protocol (FIG. 1F). Cells were treated with Vehicle (0.1% DMSO) or CFZ (5 μM) for 48 h. Cells were then fixed in formaldehyde (4%) for 25 min at 4° C., permeabilized with 0.2% Triton-X100 and washed with PBS. Cells were then incubated in Terminal Deoxynucleotidyl Transferase (TdT) reaction buffer without TdT enzyme for 7 minutes at room temperature and then in TdT buffer with TdT enzyme at 37° C. in dark. After termination of TdT reaction, cells were stained with 5 μg/ml of PI for 15 min in dark followed by washing and analysed with fluorescence microscopy.
(In ATP-based viability assays light output follows the ATP content of the culture.)

For series [1] the following is noted: rat, in vivo, po. The text has this:
Sprague-Dawley rats (n=6 per group) were divided into 3 groups. […] Plasma was separated and processed for analysis by LC-MS/MS. For pharmacokinetic and statistical analysis, plasma concentration versus time data were plotted and analyzed by non-compartmental analysis method using WinNonlin (Pharsight, Mountain View, Calif.) software.
For this SD rats (n=6 per group) were divided into 3 groups. […] Plasma was separated and processed for analysis by LC-MS/MS. For pharmacokinetic and statistical analysis, plasma concentration versus time data were plotted and analyzed by non-compartmental analysis method using WinNonlin (Pharsight, Mountain View, Calif.) software.

The test system of series [2] is CD34+ cells from imatinib-resistant patients (quiescent LSCs). Put plainly: CFSE assay of quiescent LSCs. It counts as cell-based, Human. To be noted: n=3, 96 h.
Procedure: Cells were gated depending on CFSE intensity. […] Apoptosis in these cells was determined by annexin V staining.
For assessing apoptosis in quiescent LSCs, purified CD34^+ cells were first stained with carboxyfluorescein succinimidyl ester (CFSE; Invitrogen) for 30 min. Cells were then washed and resuspended in SFM medium with 5 growth factors and were kept at 37° C. overnight. Next day, cells were treated as indicated in SFM medium with growth factors and were maintained further for 4 days with supplementation of the drugs every 48 h (drug concentrations in FIG. 5 and its description). Cells were then harvested, washed, and were labeled with CD34-PE and Annexin-APC antibodies and then gated into non-dividing cells (CD34^+CFSE^bright) and dividing cell (CD34^+CFSE^dim) population based on CFSE fluorescence intensity. […] Number of cells or apoptosis was determined by flowcytometry.
For the next series, the system named is CrkL. Put plainly: Immunoblotting of CrkL phosphorylation in K562 cells. Type of series: cell-based, Human. To be noted: 30 min, Y207. The procedure: K562 cells were treated as indicated for 30 min and stat5 phosphorylation at Y694 or CrkL phosphorylation at Y207 were assessed by immunoblotting. Total stat5 or β-actin expression was assessed to ensure equal loading. Pio was used as a negative control and IMT was used as a positive control. Data is one representative of 3 independent experiments.
K562 cells were cultured in 6 well plates and treated as indicated in figures or descriptions of FIG. 1E, FIG. 1G and FIG. 2D-E. Cells were then homogenized in lysis buffer containing 50 mM Tris-HCl, pH 7.5, 150 mM NaCl, 1% NP40, 5 mM EDTA, 1 mM DTT, protease and phosphatase inhibitor cocktails (Sigma) and incubated on ice for 30 min followed by 5 cycles of freeze-thaw. Samples were then centrifuged at 14000 rpm at 4° C. for 30 min. Supernatants were then quantified by Bichinchonic acid (Sigma)-based protein estimation. Equal amount of proteins were solubilized in Laemmli buffer, and were resolved by 10%-12% SDS PAGE and transferred onto PVDF membranes (Millipore; Billerica, Mass.). Membranes were blocked in 5% (w/v) non-fat dried milk powder (Sigma) in PBS containing 0.2% Tween 20 (Sigma). […] Immunoreactivity was detected using a chemiluminescent HRP Substrate (Millipore) in a LAS 4010 Chemi-doc Imager (GE Healthcare, Little Chalfont, UK). […]

For series [3], the system named is CD34+ cells from healthy donors. The protocol:
as §1

Consider `Cc1nc(Nc2ncc(C(=O)Nc3c(C)cccc3Cl)s2)cc(N2CCN(CCO)CC2)n1` [dasatinib, Dasatinib], for which the IC50 in the series on K562 cells (drug alone, FIG. 4A, read-out: IC50, K562 cell viability assay (48 h)) is 0.64 µM; in the series with K562 cells (in presence of CFZ, read-out: IC50 of dasatinib in presence of CFZ), 0.0124 µM.
Turning to `Cc1ccc(NC(=O)c2ccc(CN3CCN(C)CC3)cc2)cc1Nc1nccc(-c2cccnc2)n1` [imatinib, Imatinib], the “Tmax in combination group compared to individual groups” value in series [1] is “no change”. Further, the “number of CFSE-bright (non-dividing) cells” value in series [2] is on record as “failed to reduce”. In addition, the CrkL phosphorylation result in the series on CrkL is reported as “successfully inhibited”. The “viability of CD34+ hematopoietic progenitor cells from healthy controls” value in series [3] is “No loss of survival”.

For orientation: IC50 means the midpoint of a concentration-inhibition curve.
